Assay results as given in patent publication US20030017186A1, “Carboxylic acid fluorides as pesticides” (priority 1999, published 2003).

What was measured:
[1] = test system: Common furniture beetle (Anobium punctatum); experiment: Fumigation test in glass vessel, common furniture beetles; format: in vivo; details: ANOBPU beetles; Example 5; ACF 50.6/48.2/51.4 g/m^3, SF 47.4/44.6/41 g/m^3 (1st/2nd/3rd fumigation); 23/23/22° C.
Source text: (§1) b2) Common furniture beetle (Anobium punctatum)=[…]
(§2) The test organisms, separated by species, were placed into a glass vessel measuring 30 cm×30 cm×60 cm, which was sealed with a glass lid so as to be airtight. The adults and the larvae of the mealworm beetle (Tenebrio molitor) and the broad-horned flour beetle (Gnathocerus cornutus) were placed into small glass vessels approximately 5 cm in diameter, which were closed with a gauze lid and in which they could freely move about. The larvae of the rice weevil had burrowed into seeds of grain. The wood pest larvae were inserted into small blocks of wood measuring 5 cm×2.5 cm×2 cm. The openings were sealed with wads of cotton wool. Only one each of the larvae of the house longhorn beetle (Hylotrupes bajulus) was inserted into a piece of wood, while 6-8 larvae of the common furniture beetle (Anobium punctatum) were inserted into each piece of wood.
(§3) The respective gas was then introduced into the fumigation vessel through a gas line from a gas tank that contained the specified amount of gas. After a defined time period, the fumigation vessel was purged with compressed air. The discharged gas was purified by an attached gas scrubber.
(§4) The beetles were observed until they died. This point was recorded for each species. The larvae of the wood pests as well as the larvae of the rice weevil (Sitophilus oryzae) had to be picked out of the wood or the grain to check their condition. If any of the animals were still alive, the wooden test blocks remaining in the vessel were fumigated again and were reexamined after the corresponding time span had elapsed. The same number of animals in the untreated control was also checked at each point.
(§5) The vitality of the animals was checked at certain time intervals. The beetles could be observed through the fumigation vessel. This was also true for the larvae of the mealworm beetle and the broad-horned flour beetle. The wooden test blocks of the wood pest larvae were opened with hammer and chisel. Tweezers were used to pull the rice weevil larvae out of the grain seeds. The exact time intervals and the number of the evaluated pests were documented in the test results.

[2] = test system: Mealworm beetle (Tenebrio molitor); experiment: Fumigation test in glass vessel, mealworm beetles; format: in vivo; details: TENEMO beetles; Example 5; ACF 50.6/48.2/51.4 g/m^3, SF 47.4/44.6/41 g/m^3 (1st/2nd/3rd fumigation); 23/23/22° C.
Source text: (§6) a1) Mealworm beetle (Tenebrio molitor)=TENEMO
as §2, §3, §4, §5

[3] = test system: Broad-horned flour beetle (Gnathocerus cornutus); experiment: Fumigation test in glass vessel, broad-horned flour beetles; format: in vivo; details: GNATCO beetles; Example 5; ACF 50.6/48.2/51.4 g/m^3, SF 47.4/44.6/41 g/m^3 (1st/2nd/3rd fumigation); 23/23/22° C.
Source text: (§7) a3) Broad-horned flour beetle (Gnathocerus cornutus)=GNATCO
as §2, §3, §4, §5

[4] = test system: American drywood termites (Cryptotermes brevis); experiment: Termite control fumigation test, Cryptotermes brevis; format: in vivo; details: Example 6
Source text: (§8) c) American drywood termites (Cryptotermes brevis)=CRYPBR, and Incisitermes tabogae=INCITA
as §2, §3, §4, §5

[5] = test system: Rice weevil (Sitophilus oryzae); experiment: Fumigation test in glass vessel, rice weevils; format: in vivo; details: SITTOR beetles; Example 5; ACF 50.6/48.2/51.4 g/m^3, SF 47.4/44.6/41 g/m^3 (1st/2nd/3rd fumigation); 23/23/22° C.
Source text: (§9) a2) Rice weevil (Sitophilus oryzae)=SITTOR
as §2, §3, §4, §5

[6] = test system: Broad-horned flour beetle (Gnathocerus cornutus) larvae; experiment: Fumigation test in glass vessel, broad-horned flour beetle larvae; format: in vivo; details: GNATCO larvae; Example 5; ACF 50.6/48.2/51.4 g/m^3, SF 47.4/44.6/41 g/m^3 (1st/2nd/3rd fumigation); 23/23/22° C.
Source text: as §7, §2, §3, §4, §5

[7] = test system: Rice weevil (Sitophilus oryzae) larvae; experiment: Fumigation test in glass vessel, rice weevil larvae in grain seeds; format: in vivo; details: SITTOR larvae in grain seeds; Example 5; ACF 50.6/48.2/51.4 g/m^3, SF 47.4/44.6/41 g/m^3 (1st/2nd/3rd fumigation); 23/23/22° C.
Source text: as §9, §2, §3, §4, §5

Incisitermes tabogae = experiment: Termite control fumigation test, Incisitermes tabogae; format: in vivo; details: Example 6
Source text: as §8, §2, §3, §4, §5

[8] = test system: Mealworm beetle (Tenebrio molitor) larvae; experiment: Fumigation test in glass vessel, mealworm beetle larvae; format: in vivo; details: TENEMO larvae; Example 5; ACF 50.6/48.2/51.4 g/m^3, SF 47.4/44.6/41 g/m^3 (1st/2nd/3rd fumigation); 23/23/22° C.
Source text: as §6, §2, §3, §4, §5

[9] = test system: House longhorn beetle (Hylotrupes bajulus) larvae; experiment: Fumigation test in glass vessel, house longhorn beetle larvae in wood blocks; format: in vivo; details: HYLOBA larvae in wood blocks; Example 5; ACF 50.6/48.2/51.4 g/m^3, SF 47.4/44.6/41 g/m^3 (1st/2nd/3rd fumigation); 23/23/22° C.
Source text: (§10) b1) House longhorn beetle (Hylotrupes bajulus)=HYLOBA
as §2, §3, §4, §5

wood and storage pests = experiment: Fumigation test, wood and storage pests (overall statements); format: in vivo; details: Example 5; wood and storage pests
Source text: as §2, §3, §4, §5

[10] = test system: Common furniture beetle (Anobium punctatum) larvae; experiment: Fumigation test in glass vessel, common furniture beetle larvae in wood blocks; format: in vivo; details: ANOBPU larvae in wood blocks; Example 5; ACF 50.6/48.2/51.4 g/m^3, SF 47.4/44.6/41 g/m^3 (1st/2nd/3rd fumigation); 23/23/22° C.
Source text: as §1, §2, §3, §4, §5

termites = experiment: Termite control fumigation test (overall statements); format: in vivo, Cryptotermes brevis, Incisitermes tabogae; details: Example 6; compared with those treated with acetyl fluoride
Source text: as §8, §2, §3, §4
The vitality of the animals was checked at certain time intervals. The beetles could be observed through the fumigation vessel. This was also true for the larvae of the mealworm beetle and the broad-horned flour beetle. […] The exact time intervals and the number of the evaluated pests were documented in the test results.

[11] = test system: House longhorn beetle (Hylotrupes bajulus); experiment: Fumigation test in glass vessel, house longhorn beetles; format: in vivo; details: HYLOBA beetles; Example 5; ACF 50.6/48.2/51.4 g/m^3, SF 47.4/44.6/41 g/m^3 (1st/2nd/3rd fumigation); 23/23/22° C.
Source text: as §10, §2, §3, §4, §5

[12] = test system: Saw-toothed grain beetle (Oryzaephilus surinamensis); experiment: Fumigation test in glass vessel, saw-toothed grain beetles; format: in vivo; details: ORYZSA beetles; Example 5; ACF 50.6/48.2/51.4 g/m^3, SF 47.4/44.6/41 g/m^3 (1st/2nd/3rd fumigation); 23/23/22° C.
Source text: a4) Saw-toothed grain beetle (Oryzaephilus surinamensis)=ORYZSA
as §2, §3, §4, §5

[13] = CRYPBR termites, ACF 50.0/53.8 g/m^3, SF 47.8/44.8 g/m^3 (1st/2nd fumigation), 23.7/24° C.
[14] = INCITA termites, ACF 50.0/53.8 g/m^3, SF 47.8/44.8 g/m^3 (1st/2nd fumigation), 23.7/24° C.

O=S(=O)(F)F [SF, sulfuryl fluoride, reference compound]
Number alive, 30 min. after Start of Fumigation [1]: 0 | Number dead, 30 min. after Start of Fumigation [1]: 6 | Number alive, 30 min. after Start of Fumigation [2]: 0 | Number dead, 30 min. after Start of Fumigation [2]: 10 | Number alive, 30 min. after Start of Fumigation [3]: 0 | Number dead, 30 min. after Start of Fumigation [3]: 15 | Number alive, 30 min. after 1st Fumigation [4, 13]: 180 | Number alive, 1 hr. after 1st Fumigation [4, 13]: 60 | Number alive, 3 hrs. after 1st Fumigation [4, 13]: 0 | Number dead, 30 min. after 1st Fumigation [4, 13]: 0 | Number dead, 1 hr. after 1st Fumigation [4, 13]: 0 | Number dead, 3 hrs. after 1st Fumigation [4, 13]: 120 | Number of Cryptotermes still alive on reexamination after 24-hour observation period ([4]; out of 60 animals fumigated 1 hour, then 24-hour observation): 7 | Number alive, 30 min. after Start of Fumigation [5]: 0 | Number dead, 30 min. after Start of Fumigation [5]: 15 | Number alive, 30 min. after Start of Fumigation [6]: 15 | Number alive, 1 hr. after Start of Fumigation [6]: 0 | Number dead, 30 min. after Start of Fumigation [6]: 0 | Number dead, 1 hr. after Start of Fumigation [6]: 15 | Number alive, 1 hr. after Start of Fumigation [7]: 0 | Number dead, 1 hr. after Start of Fumigation [7]: 15 | Condition of Incisitermes on reexamination after 24-hour observation period (Incisitermes tabogae; animals fumigated 1 hour, then 24-hour observation): dead | Number alive, 30 min. after 1st Fumigation (Incisitermes tabogae; [14]): 90 | Number alive, 1 hr. after 1st Fumigation (Incisitermes tabogae; [14]): 30 | Number alive, 3 hrs. after 1st Fumigation (Incisitermes tabogae; [14]): 0 | Number dead, 30 min. after 1st Fumigation (Incisitermes tabogae; [14]): 0 | Number dead, 1 hr. after 1st Fumigation (Incisitermes tabogae; [14]): 0 | Number dead, 3 hrs. after 1st Fumigation (Incisitermes tabogae; [14]): 60 | Number alive, 30 min. after Start of Fumigation [8]: 1 | Number alive, 1 hr. after Start of Fumigation [8]: 1 | Number alive, 3 hrs. after Start of Fumigation [8]: 0 | Number dead, 30 min. after Start of Fumigation [8]: 4 | Number dead, 1 hr. after Start of Fumigation [8]: 4 | Number dead, 3 hrs. after Start of Fumigation [8]: 5 | Number alive, 1 hr. after Start of Fumigation [9]: 3 | Number alive, 3 hrs. after Start of Fumigation [9]: 0 | Number alive, 6 hrs after Start of Fumigation [9]: 0 | Number dead, 1 hr. after Start of Fumigation [9]: 1 | Number dead, 3 hrs. after Start of Fumigation [9]: 4 | Number dead, 6 hrs after Start of Fumigation [9]: 6 | Speed of action compared with acetyl fluoride (wood and storage pests): clearly acts more slowly than acetyl fluoride | Number alive, 1 hr. after Start of Fumigation [10]: 3 | Number alive, 3 hrs. after Start of Fumigation [10]: 4 | Number alive, 6 hrs after Start of Fumigation [10]: 0 | Number dead, 1 hr. after Start of Fumigation [10]: 0 | Number dead, 3 hrs. after Start of Fumigation [10]: 0 | Number dead, 6 hrs after Start of Fumigation [10]: 8 | Liveliness of termites after 1 hour of fumigation (termites): more lively overall | Number alive, 30 min. after Start of Fumigation [11]: 4 | Number alive, 1 hr. after Start of Fumigation [11]: 2 | Number alive, 3 hrs. after Start of Fumigation [11]: 0 | Number dead, 30 min. after Start of Fumigation [11]: 0 | Number dead, 1 hr. after Start of Fumigation [11]: 2 | Number dead, 3 hrs. after Start of Fumigation [11]: 4 | Number alive, 30 min. after Start of Fumigation [12]: 0 | Number dead, 30 min. after Start of Fumigation [12]: 15
